# ChEMBL document CHEMBL6071148, “Synthesis and biological evaluation of novel 3,6- amide and thioamide substituted- 2,3,4,9-tetrahydro-1H-carbazoles for anti-cancer activity” (Eur J Med Chem, 2024)
# Calls of active or inactive are those of the source. The rule behind the calls is not given here.
# Legend:
# HCT-116 [1] = test: Inhibition of colony formation in human HCT-116 cells assessed as reduction in clonogenic capacity incubated for 24 hrs by crystal violet staining based analysis; type: functional, cell-based
# HCT-116 [2] = test: Cytotoxicity against human HCT-116 cells assessed as inhibition of cell proliferation incubated for 72 hrs by MTT assay; type: functional, cell-based; conditions: HCT-116, 72 h
# A549 [3] = test: Induction of apoptosis in human A549 cells assessed as apoptotic rate at IC50 incubated for 24 hrs by Annexin-V and 7-AAD staining based flow cytometric analysis (reference value: 4.56 +/- 0.81%); type: functional
# Mitochondrial membrane [4] = test: Disruption of mitochondrial membrane integrity in human A549 cells assessed as change in mitochondrial shape by TEM analysis; type: cell membranes
# Mitochondrial membrane [5] = test: Disruption of mitochondrial membrane integrity in human A549 cells assessed as change in mitochondrial internal organization by TEM analysis; type: cell membranes
# MCF7 [6] = test: Cytotoxicity against human MCF7 cells assessed as inhibition of cell proliferation incubated for 72 hrs by MTT assay; type: functional, cell-based; conditions: MCF7, 72 h
# MCF7 [7] = test: Induction of cell cycle arrest in human MCF7 cells assessed as accumulation of cells at S phase at IC50 incubated for 24 hrs by PI staining based flow cytometric analysis relative to control; type: functional
# MCF7 [8] = test: Induction of cell cycle arrest in human MCF7 cells assessed as accumulation of cells at G1 phase at IC50 incubated for 24 hrs by PI staining based flow cytometric analysis relative to control; type: functional
# A549 [9] = test: Induction of cell cycle arrest in human A549 cells assessed as accumulation of cells at G1 phase at IC50 incubated for 48 hrs by PI staining based flow cytometric analysis (reference value: 53.5 +/- 4.01%); type: functional
# Mitochondrial membrane [10] = test: Induction of mitochondrial membrane depolarization in human A549 cells assessed as increase in mitochondrial fission by measuring appearance of circular mitochondria by confocal microscopic analysis; type: cell membranes
# [11] = Cytotoxicity against human MRC5 cells assessed as inhibition of cell proliferation incubated for 72 hrs by MTT assay; type: toxicity, cell-based
# MCF7 [12] = test: Antitumor activity against human MCF7 cells xenografted in chicken embryo chorioallantoic membrane assessed as change in nuclear morphology at 1.5 to 4.5 uM by H and E staining based analysis; type: functional, cell-based; conditions: dose 1.5-4.5 µM
# Mitochondrial membrane [13] = test: Induction of mitochondrial membrane depolarization in human A549 cells assessed as increase in mitochondrial fission by measuring appearance of shortened mitochondria by confocal microscopic analysis; type: cell membranes
# A549 [14] = test: Antitumor activity against human A549 cells xenografted in chicken embryo chorioallantoic membrane assessed as reduction in tumor size; type: functional, cell-based; conditions: dose 1.5-4.5 µM
# MCF7 [15] = test: Induction of cell cycle arrest in human MCF7 cells assessed as accumulation of cells at S phase at IC50 incubated for 48 hrs by PI staining based flow cytometric analysis; type: functional
# Mitochondrial membrane [16] = test: Disruption of mitochondrial membrane integrity in human MCF7 cells assessed as change in mitochondrial shape by TEM analysis; type: cell membranes
# Mitochondrial membrane [17] = test: Induction of mitochondrial membrane depolarization in human A549 cells assessed as decrease in ratio of J-aggregates to J-monomer incubated for 24 hrs by JC-1 staining based flow cytometric analysis (reference value: 17.72 +/- 3.94%); type: cell membranes
# Mitochondrial membrane [18] = test: Disruption of mitochondrial membrane integrity in human A549 cells assessed as absence of well-developed cristae by TEM analysis; type: cell membranes
compound,measurement,setting,value
CC(=S)NC1CCc2[nH]c3ccc(Br)cc3c2C1 (stereo not drawn),inhibition,HCT-116 [1],Dose-Dependent Effect
same,IC50,HCT-116 [2],40 µM
same,Activity,A549 [3],20.75%
same,Activity,Mitochondrial membrane [4],Active
same,Activity,Mitochondrial membrane [5],Active
same,IC50,MCF7 [6],3.81 µM
same,Activity,MCF7 [7],25.65%
same,Activity,MCF7 [8],33.7%
same,Activity,A549 [9],46.15%
same,Activity,Mitochondrial membrane [10],Active
same,IC50 at 72 h,[11],> 50 µM
same,Activity,MCF7 [12],Active
same,Activity,Mitochondrial membrane [13],Active
same,Activity,A549 [14],Dose-Dependent Effect
same,Activity,MCF7 [15],Active
same,Activity,Mitochondrial membrane [16],Active
same,Activity,Mitochondrial membrane [17],8.73
same,Activity,Mitochondrial membrane [18],Active
